Assay results published in patent US5391540A, “Substituted pyridine compounds” (Rohm and Haas Company, priority 1993, dated 1995).

What was measured:
Assay in all cases: Pre-emergent herbicidal activity (Table A)
Type in all cases: in vivo
Rhizome Johnsongrass = conditions: Sorghum halepense, pre-emergence, Rhjg, 11.2 kg/ha, 10-14 days, read-out: herbicidal rating (% inhibition)
Experimental: (§1) The herbicidal ratings used in Tables A and B were assigned according to a scale based on the percent inhibition of each plant species. The herbicide rating symbols in Tables A and B are defined as follows: […]
(§2) One set of pre-emergent tests was conducted as follows:
(§3) Topsoil was placed in a pan and compacted to a depth of 0.95 to 1.27 cm. from the top of the pan. A predetermined number of seeds of each of several monocotyledonous and dicotyledonous annual plant species and/or vegetative propagules of various perennial plant species were placed on top of the soil. The soil required to level fill a pan after seeding or adding vegetative propagules was weighed into another pan. A known amount of the test compound dissolved or suspended in an organic solvent or water and applied in acetone or water as a carrier was thoroughly mixed with this cover soil, and the herbicide/soil mixture was used as a cover layer for the previously prepared pan.
(§4) The plant species usually regarded as weeds which were utilized in one set of pre-emergent activity tests, the data for which are shown in Table A, are identified by letter headings printed diagonally above the columns according to the following legend: […]

Canada thistle = conditions: Cirsium arvense, pre-emergence, Cath, 11.2 kg/ha, 10-14 days, read-out: herbicidal rating (% inhibition)
Experimental: as §1, §2, §3, §4

Pennsylvania Smartweed = conditions: pre-emergence, Pesw, 11.2 kg/ha, 10-14 days, read-out: herbicidal rating (% inhibition)
Experimental: as §1, §2, §3, §4

Cocklebur = conditions: Xanthium strumarium, pre-emergence, Cobu, 11.2 kg/ha, 10-14 days, read-out: herbicidal rating (% inhibition)
Experimental: as §1, §2, §3, §4

Downy Brome = conditions: Bromus tectorum, pre-emergence, Dobr, 11.2 kg/ha, 10-14 days, read-out: herbicidal rating (% inhibition)
Experimental: as §1, §2, §3, §4

Yellow Nutsedge = conditions: Cyperus, pre-emergence, Yens, 11.2 kg/ha, 10-14 days, read-out: herbicidal rating (% inhibition)
Experimental: as §1, §2, §3, §4

Common Lambsquarters = conditions: Chenopodium album, pre-emergence, Colq, 11.2 kg/ha, 10-14 days, read-out: herbicidal rating (% inhibition)
Experimental: as §1, §2, §3, §4

Velvetleaf = conditions: Abutilon theophrasti, pre-emergence, Vele, 11.2 kg/ha, 10-14 days, read-out: herbicidal rating (% inhibition)
Experimental: as §1, §2, §3, §4

Morningglory = conditions: Ipomoea, pre-emergence, Mogl, 11.2 kg/ha, 10-14 days, read-out: herbicidal rating (% inhibition)
Experimental: as §1, §2, §3, §4

Barnyardgrass = conditions: Echinochloa crus-galli, pre-emergence, Bygr, 11.2 kg/ha, 10-14 days, read-out: herbicidal rating (% inhibition)
Experimental: as §1, §2, §3, §4

Quackgrass = conditions: pre-emergence, Rhqg, 11.2 kg/ha, 10-14 days, read-out: herbicidal rating (% inhibition)
Experimental: as §1, §2, §3, §4

SMILES	inhibition at 11200 g/ha (Rhizome Johnsongrass) [%]	inhibition at 11200 g/ha (Canada thistle) [%]	inhibition at 11200 g/ha (Pennsylvania Smartweed) [%]	inhibition at 11200 g/ha (Cocklebur) [%]	inhibition at 11200 g/ha (Downy Brome) [%]	inhibition at 11200 g/ha (Yellow Nutsedge) [%]	inhibition at 11200 g/ha (Common Lambsquarters) [%]	inhibition at 11200 g/ha (Velvetleaf) [%]	inhibition at 11200 g/ha (Morningglory) [%]	inhibition at 11200 g/ha (Barnyardgrass) [%]	inhibition at 11200 g/ha (Quackgrass) [%]
CCOC(=O)C1=C(C(F)(F)F)NC(=O)C(C(N)=O)C1CC(C)C (centres unmarked) [Compound 35, 3-pyridinecarboxylic acid, 5-(aminocarbonyl)-1,4,5,6-tetrahydro-4-(2-methylpropyl)-6-oxo-2-(trifluoromethyl)-, ethyl ester]	0 to 24	0 to 24	0 to 24	0 to 24	0 to 24	0 to 24	0 to 24	0 to 24	0 to 24	0 to 24	0 to 24
COC(=O)c1c(C(F)(F)F)nc(OC)c(C(=O)n2cccn2)c1CC(C)C [Compound 24, 3-pyridinecarboxylic acid, 6-methoxy-4-(2-methylpropyl)-5-(1H-pyrazo1-1-ylcarbonyl)-2-(trifluoromethyl)-, methyl ester, hydrate (1:0.3)]	75 to 100	25 to 49	75 to 100	0 to 24	75 to 100	0 to 24	75 to 100	75 to 100	75 to 100	75 to 100	75 to 100
COC(=O)c1c(C(F)(F)F)nc(OC)c(N=CSC)c1CC(C)C [Compound 58, 3-pyridinecarboxylic acid, 6-methoxy-4-(2-methylpropyl)-5-[(methylthiomethylene)]amino-2-(trifluoromethyl)-, methyl ester]	0 to 24	0 to 24	75 to 100	0 to 24	75 to 100	0 to 24	75 to 100	25 to 49	25 to 49	75 to 100	75 to 100
COC(=O)c1c(OC)nc(C(F)(F)F)c(C(=O)OC)c1C [Compound 86, 3,5-pyridinedicarboxylic acid, 2-methoxy-4-methy1-6-(trifluoromethyl)-, dimethyl ester]	75 to 100	0 to 24	50 to 74	0 to 24	75 to 100	0 to 24	75 to 100	50 to 74	75 to 100	75 to 100	75 to 100
CN=C(SC)c1c(OC)nc(C(F)(F)F)c(C(=O)OC)c1CC(C)C [Compound 55, 3-pyridinecarboxylic acid, 6-methoxy-5-[(methylimino)(methylthio)methyl]-4-(2-methylpropyl)-2-(trifluoromethyl)-, methyl ester]	0 to 24	0 to 24	75 to 100	0 to 24	75 to 100	0 to 24	75 to 100	25 to 49	25 to 49	75 to 100	75 to 100
COc1nc(C(F)(F)F)c(C(=O)SC)c(C2CCC2)c1C(=O)SC [Compound 65, 3,5 pyridinedicarbothioic acid, 4-cyclobuty1-2-methoxy-6-(trifluoromethyl)-, S,S-dimethyl ester]	0 to 24	75 to 100	75 to 100	25 to 49	75 to 100	25 to 49	75 to 100	75 to 100	75 to 100	75 to 100	50 to 74
COC(=O)c1c(OC)nc(C(F)(F)F)c(C(=O)N2CCCCCC2)c1CC(C)C [Compound 73, 3-pyridinecarboxylic acid, 5-[(hexahydro-1H-azepin-1-yl)carbonyl]-2-methoxy-4-(2-methylpropyl)-6-(trifluoromethyl)-, methyl ester]	75 to 100	75 to 100	75 to 100	0 to 24	75 to 100	0 to 24	75 to 100	25 to 49	50 to 74	75 to 100	75 to 100
CCOC(=O)c1c(OC)nc(C(F)F)c(C(=O)OC)c1CC(C)C [Compound 26, 3,5-pyridinedicarboxylic acid, 2-(difluoromethyl)-6-methoxy-4-(2-methylpropyl)-, 5-ethyl 3-methyl ester]	75 to 100	75 to 100	75 to 100	0 to 24	75 to 100	0 to 24	75 to 100	75 to 100	75 to 100	75 to 100	75 to 100
CCSC(=O)c1c(C(F)(F)F)nc(OC)c(C(=O)OC)c1CC(C)C [Compound 53, 3-pyridinecarboxylic acid, 5-[(ethylthio)carbonyl]-2-methoxy-4-(2-methylpropyl)-6-(trifluoromethyl)-, methyl ester]	0 to 24	0 to 24	75 to 100	75 to 100	75 to 100	0 to 24	75 to 100	75 to 100	75 to 100	75 to 100	75 to 100
COC(=O)c1c(OC)nc(C(F)(F)F)c(C(=O)n2ccc(C)n2)c1CC(C)C [Compound 51, 3-pyridinecarboxylic acid, 2-methoxy-4-(2-methylpropyl)-5-[(3-methy1-1H-pyrazo1-1-yl)carbonyl]-6-(trifluoromethyl)-, methyl ester]	75 to 100	75 to 100	75 to 100	25 to 49	75 to 100	25 to 49	75 to 100	75 to 100	75 to 100	75 to 100	75 to 100
COC(=O)c1c(C(F)(F)F)nc(OC)c(C(=O)SC)c1CC(C)C [Compound 33, 3-pyridinecarboxylic acid, 6-methoxy-4-(2-methylpropyl)-5-[(methylthio)carbonyl]-2-(trifluoromethyl)-, methyl ester]	75 to 100	50 to 74	75 to 100	25 to 49	75 to 100	50 to 74	75 to 100	75 to 100	75 to 100	75 to 100	75 to 100
CCCCOC(=O)c1c(C(F)(F)F)nc(OC)c(C(=O)OC)c1CC(C)C [Compound 16, 3,5-pyridinedicarboxylic acid, 2-methoxy-4-(2-methylpropyl)-6-(trifluoromethyl)-, 5 butyl 3-methyl ester]	0 to 24	50 to 74	75 to 100	0 to 24	75 to 100	0 to 24	75 to 100	75 to 100	75 to 100	75 to 100	75 to 100
CN=C(SC)c1c(C(F)(F)F)nc(OC)c(C(=O)OC)c1CC(C)C [Compound 41, 3-pyridinecarboxylic acid, 2-methoxy-5-[(methylimino)(methylthio)methyl]-4-(2-methylpropyl)-6-(trifluoromethyl)-, methyl ester]	0 to 24	75 to 100	75 to 100	25 to 49	75 to 100	0 to 24	75 to 100	75 to 100	75 to 100	75 to 100	75 to 100
